Reference: patent US9994587B2, “HIV protease inhibitors” (priority 2014, dated 2018)

What follows are compounds tested against T1, wildtype HIV-1 protease (Human immunodeficiency virus type 1 group M subtype B, UniProt P04585) (assay: Assay for inhibition of microbial expressed HIV protease (Pepcleav)). Conditions: wild type HIV-1 protease 20 pM, peptide substrate 400 micromolar, pH 5.5; mean of at least two independent experiments.
T1 construct: preincubated with the HIV-1 protease (wild type) enzyme in assay buffer; made in house; host or cells: Escherichia coli
Format: biochemical
Method: Assay for Inhibition of Microbial Expressed HIV Protease (“Pepcleav”)
Studies of the inhibition of the wildtype HIV-1 protease (which was expressed in Escherichia coli) were carried out with a peptide substrate [Val-Ser-Gln-Asn-(βnaphtyl)Ala-Pro-Ile-Val (SEQ ID NO 1)]. The inhibitor was first preincubated with the HIV-1 protease (wild type) enzyme in assay buffer (50 mM sodium acetate, pH 5.5, 100 mM NaCl, and 0.1% BSA) for 30 minutes at room temperature. Substrate was added to 400 micromolar in a total volume of 20 microliters containing 20 picomolar HIV-1 protease (final) and the reaction is incubated for 1 hour at 30° C. The reaction was quenched with the addition of formic acid and indinavir to 0.012% and 150 nM final concentrations, respectively. Product formation was determined after separation of product and substrate on a Zorbax Eclipse XDB-C18 column connected to an API 4000 mass spectrometer (Applied Biosystems) with multiple reaction monitoring (transitions were 644.5/428.9 and 615.4/422.2 (M1/M3) for product and indinavir respectively). The extent of inhibition of the reaction was determined from the peak area of the products.
Compound `COC(=O)N[C@H](C(=O)Nc1ccccc1CC[C@@H]1CNC[C@@H](COc2ccc(Br)cc2[N+](=O)[O-])O1)C(c1ccccc1)c1ccccc1` [Example 10, methyl N-[(1S)-1-benzhydryl-2-[[2-[2-[(2R,6S)-6-[(4-bromo-2-nitro-phenoxy)methyl]morpholin-2-yl]ethyl]phenyl]amino]-2-oxo-ethyl]carbamate] has an IC50 of 120 nM.
`COC(=O)N[C@H](C(=O)Nc1ccccc1CC[C@@H]1CNC[C@@H](CSc2nnc(Cc3csc(C)n3)o2)O1)C(c1ccccc1)c1ccccc1` [Example 32, methyl N-[(1S)-1-benzhydryl-2-[[2-[2-[(2R,6S)-6-[[5-[(2-methylthiazol-4-yl)methyl]-1,3,4-oxadiazol-2-yl]sulfanylmethyl]morpholin-2-yl]ethyl]phenyl]amino]-2-oxo-ethyl]carbamate] was tested, and the IC50 was 8 nM.
In the case of `COC(=O)N[C@H](C(=O)Nc1ccccc1CC[C@@H]1CNC[C@@H](CSc2ccc(Br)cc2)O1)C(c1ccccc1)c1ccccc1` [Example 8, methyl N-[(1S)-1-benzhydryl-2-[[2-[2-[(2R,6S)-6-[(4-bromophenyl)sulfanylmethyl]morpholin-2-yl]ethyl]phenyl]amino]-2-oxo-ethyl]carbamate], the IC50 is reported as 2.1 nM.
`COC(=O)N[C@H](C(=O)Nc1ccccc1OC[C@@H]1CNC[C@@H](CSc2ccc(Cl)cc2)O1)C(c1ccccc1)c1ccccc1` [Example 58, methyl N-[(1S)-1-benzhydryl-2-[[2-[[(2S,6S)-6-[(4-chlorophenyl)sulfanylmethyl]morpholin-2-yl]methoxy]phenyl]amino]-2-oxo-ethyl]carbamate] showed an IC50 of 8.1 nM.
`COC(=O)N[C@H](C(=O)Nc1ccccc1CC[C@@H]1CNC[C@@H](COc2ccc3c(c2)NCCC3)O1)C(c1ccccc1)c1ccccc1` [Example 53, methyl [(2S)-1-oxo-3,3-diphenyl-1-{[2-(2-{(2R,6S)-6-[(1,2,3,4-tetrahydroquinolin-7-yloxy)methyl]morpholin-2-yl}ethyl)phenyl]amino}propan-2-yl]carbamate] gave an IC50 of 13 nM.
`COC(=O)N[C@H](C(=O)NCCCC1CNC[C@@H](CSc2ccc(Cl)cc2)O1)C(c1ccccc1)c1ccccc1` (stereo partly drawn) [Example 2, methyl N-[(1S)-1-benzhydryl-2-[3-[(6S)-6-[(4-chlorophenyl)sulfanylmethyl]morpholin-2-yl]propylamino]-2-oxo-ethyl]carbamate] showed an IC50 of 300 nM.
Compound `COC(=O)N[C@H](C(=O)Nc1ccccc1CC[C@@H]1CNC[C@@H](COc2cccc(F)c2)O1)C(c1ccccc1)c1ccccc1` [Example 47, N-[2-(2-{(2R,6S)-6-[(3-fluorophenoxy)methyl]morpholin-2-yl}ethyl)phenyl]-Nα-(methoxycarbonyl)-β-phenyl-L-phenylalaninamide] has an IC50 of 12 nM.
Work on `COC(=O)N[C@H](C(=O)Nc1ccccc1CC[C@@H]1CNC[C@@H](COc2ccc(Br)cc2)O1)C(c1ccccc1)c1ccccc1` [Example 9, methyl N-[(1S)-1-benzhydryl-2-[[2-[2-[(2R,6S)-6-[(4-bromophenoxy)methyl]morpholin-2-yl]ethyl]phenyl]amino]-2-oxo-ethyl]carbamate] yielded an IC50 of 18 nM.
In the case of `COC(=O)N[C@H](C(=O)Nc1ccccc1CC[C@@H]1CNC[C@@H](/C=C/c2ccc(S(C)(=O)=O)cc2)O1)C(c1ccccc1)c1ccccc1` [Example 61, N-α-(methoxycarbonyl)-N-(2-{2-[(2R,6R)-6-{(E)-2-[4-(methylsulfonyl)phenyl]ethenyl}morpholin-2-yl]ethyl}phenyl)-β-phenyl-L-phenylalaninamide], the IC50 is reported as 5.9 nM.
`N[C@H](C(=O)Nc1c(CC[C@@H]2CNC[C@@H](CSc3ccc(Cl)cc3)O2)cc[nH]c1=O)C(c1ccccc1)c1ccccc1` [Example 88, N-(4-{2-[(2R,6S)-6-{[(4-chlorophenyl)sulfanyl]methyl}morpholin-2-yl]ethyl}-2-oxo-1,2-dihydropyridin-3-yl)-β-phenyl-L-phenylalaninamide] showed an IC50 of 0.04 nM.
`COC(=O)N[C@H](C(=O)NCCCC1CNC[C@@H](CCc2ccc(Cl)cc2)O1)C(c1ccccc1)c1ccccc1` (stereo partly drawn) [Example 107, N-(3-{(6R)-6-[2-(4-chlorophenyl)ethyl]morpholin-2-yl}propyl)-Nα-(methoxycarbonyl)-β-phenyl-L-phenylalaninamide] gave an IC50 of 1000 nM.
For `COC(=O)N[C@H](C(=O)Nc1ccccc1CC[C@@H]1CNC[C@@H](COc2cccc3c2CCC3)O1)C(c1ccccc1)c1ccccc1` [Example 31, methyl N-[(1S)-1-benzhydryl-2-[[2-[2-[(2R,6S)-6-(indan-4-yloxymethyl)morpholin-2-yl]ethyl]phenyl]amino]-2-oxo-ethyl]carbamate], the IC50 was 36 nM.
`COC(=O)N[C@H](C(=O)NCCCCC1CNC[C@@H](CS(=O)(=O)c2ccc(N)cc2)O1)C(c1ccccc1)c1ccccc1` (stereo partly drawn) [Example 1, Methyl N-[(1S)-1-[4-[(6S)-6-[(4-aminophenyl)sulfonylmethyl]morpholin-2-yl]butylcarbamoyl]-2,2-diphenyl-ethyl]carbamate] showed an IC50 of 450 nM.
`NC(=O)OC[C@@H]1CNC[C@@H](CCc2c(F)cncc2NC(=O)[C@@H](N)C(c2ccc(F)cc2)c2ccc(F)cc2)O1` [Example 124, N-[4-(2-{(2R,6S)-6-[(carbamoyloxy)methyl]morpholin-2-yl}ethyl)-5-fluoropyridin-3-yl]-4-fluoro-β-(4-fluorophenyl)-L-phenylalaninamide] was tested, and the IC50 was 120 nM.
Compound `COC(=O)N[C@H](C(=O)Nc1ccccc1CC[C@@H]1CNC[C@@H](COc2ccc(F)cc2)O1)C(c1ccccc1)c1ccccc1` [Example 46, N-[2-(2-{(2R,6S)-6-[(4-fluorophenoxy)methyl]morpholin-2-yl}ethyl)phenyl]-Nα-(methoxycarbonyl)-β-phenyl-L-phenylalaninamide] has an IC50 of 23 nM.
With `COC(=O)N[C@H](C(=O)Nc1ccccc1CC[C@@H]1CNC[C@@H](CSc2ccc(Cl)cc2)O1)[C@@H](c1ccccc1)c1c[nH]c2ncccc12` [Example 67, (βS)-N-(2-{2-[(2R,6S)-6-{[(4-chlorophenyl)sulfanyl]methyl}morpholin-2-yl]ethyl}phenyl)-Nα-(methoxycarbonyl)-β-1H-pyrrolo[2,3-b]pyridin-3-yl-L-phenylalaninamide] the IC50 was 0.11 nM.
`COC(=O)N[C@H](C(=O)Nc1c(CC[C@@H]2CNC[C@@H](CSc3ccc(Cl)cc3)O2)cc[nH]c1=O)C(c1ccccc1)c1ccccc1` [Example 87, N-(4-{2-[(2R,6S)-6-{[(4-chlorophenyl)sulfanyl]methyl}morpholin-2-yl]ethyl}-2-oxo-1,2-dihydropyridin-3-yl)-Nα-(methoxycarbonyl)-β-phenyl-L-phenylalaninamide] showed an IC50 of 0.05 nM.
`COC(=O)N[C@H](C(=O)Nc1cnccc1CC[C@@H]1CNC[C@@H](COc2ccc(C#N)cc2)O1)C(c1ccccc1)c1ccccc1` [Example 81, N-[4-(2-{(2R,6S)-6-[(4-cyanophenoxy)methyl]morpholin-2-yl}ethyl)pyridin-3-yl]-Nα-(methoxycarbonyl)-β-phenyl-L-phenylalaninamide] showed an IC50 of 53 nM.
`COC(=O)N[C@H](C(=O)Nc1ccccc1CCC1CNC[C@@H](CS(=O)(=O)c2ccc3ccccc3c2)O1)C(c1ccccc1)c1ccccc1` (stereo partly drawn) [Example 4, methyl N-[(1S)-1-benzhydryl-2-[[2-[2-[(6S)-6-(2-naphthylsulfonylmethyl)morpholin-2-yl]ethyl]phenyl]amino]-2-oxo-ethyl]carbamate] was tested, and the IC50 was 62 nM.
With `COC(=O)N[C@H](C(=O)Nc1cncnc1CC[C@@H]1CNC[C@@H](COc2ccc(C#N)cc2)O1)C(c1ccccc1)c1ccccc1` [Example 79, N-[4-(2-{(2R,6S)-6-[(4-cyanophenoxy)methyl]morpholin-2-yl}ethyl)pyrimidin-5-yl]-Nα-(methoxycarbonyl)-β-phenyl-L-phenylalaninamide] the IC50 was 120 nM.
`CC(C)COC[C@@H]1CNC[C@@H](CCc2c(F)cncc2NC(=O)[C@@H](N)C(c2ccc(F)cc2)c2ccc(F)cc2)O1` [Example 132, 4-fluoro-N-[5-fluoro-4-(2-{(2R,6S)-6-[(2-methylpropoxy)methyl]morpholin-2-yl}ethyl)pyridin-3-yl]-β-(4-fluorophenyl)-L-phenylalaninamide] was tested, and the IC50 was 430 nM.
With `COC(=O)N[C@H](C(=O)Nc1ccccc1CC[C@@H]1CNC[C@@H](CSc2cccc3ncccc23)O1)C(c1ccccc1)c1ccccc1` [Example 42, methyl [(2S)-1-oxo-3,3-diphenyl-1-{[2-(2-{(2R,6S)-6-[(quinolin-5-ylsulfanyl)methyl]morpholin-2-yl}ethyl)phenyl]amino}propan-2-yl]carbamate] the IC50 was 0.94 nM.
Work on `COC(=O)N[C@H](C(=O)Nc1ncccc1CC[C@@H]1CNC[C@@H](COc2ccc(C#N)cc2)O1)C(c1ccccc1)c1ccccc1` [Example 85, N-[3-(2-{(2R,6S)-6-[(4-cyanophenoxy)methyl]morpholin-2-yl}ethyl)pyridin-2-yl]-Nα-(methoxycarbonyl)-β-phenyl-L-phenylalaninamide] yielded an IC50 of 88 nM.
Compound `COC(=O)N[C@H](C(=O)Nc1ccc(F)cc1CC[C@@H]1CNC[C@@H](COc2cccc(C#N)c2)O1)C(c1ccccc1)c1ccccc1` [Example 74, N-[2-(2-{(2R,6S)-6-[(3-cyanophenoxy)methyl]morpholin-2-yl}ethyl)-4-fluorophenyl]-Nα-(methoxycarbonyl)-β-phenyl-L-phenylalaninamide] has an IC50 of 39 nM.
